Data published in US8030489B2, “Ornithine derivative” (Astellas Pharma Inc., priority 2007, dated 2011).
pKi: −log10 of the molar value. Values after ≈ are worked out from the molar mass of the structure shown.

Legend:
[1] = target: T1, rat EP4 receptor (Rattus norvegicus, UniProt P43114); test: Evaluation test on rat EP4 receptor affinity ([3H]PGE2 binding assay); details: rat EP4 expressed in HEK293 membrane fraction, [3H]PGE2 0.3 nM
T1 construct: expressed in transfected cells; host or cells: HEK293
T1 sequence (P43114 whole entry): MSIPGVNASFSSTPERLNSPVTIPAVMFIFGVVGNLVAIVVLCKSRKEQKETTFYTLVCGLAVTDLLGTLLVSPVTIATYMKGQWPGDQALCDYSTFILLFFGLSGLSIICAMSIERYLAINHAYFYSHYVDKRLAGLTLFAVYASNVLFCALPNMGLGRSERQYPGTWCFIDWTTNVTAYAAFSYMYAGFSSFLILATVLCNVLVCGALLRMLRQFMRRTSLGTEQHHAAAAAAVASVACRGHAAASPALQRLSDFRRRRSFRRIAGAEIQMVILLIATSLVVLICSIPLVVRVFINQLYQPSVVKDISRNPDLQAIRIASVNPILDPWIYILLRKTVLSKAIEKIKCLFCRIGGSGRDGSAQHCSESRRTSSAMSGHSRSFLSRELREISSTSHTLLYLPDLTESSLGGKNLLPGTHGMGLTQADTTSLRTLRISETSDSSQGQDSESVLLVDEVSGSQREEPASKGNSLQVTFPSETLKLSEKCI
Experimental: Test Example 1: Evaluation Test on Rat EP4 Receptor Affinity
Cell Culture and Transfection
Using a 10 cm collagen-coated dish (Asahi Glass), HEK293 cells were cultured in a D-MEM culture medium, washed with a phosphate buffer saline (PBS), the culture medium was removed off at a confluence (90 to 100% density state), and then the cells were detached with N,N,N′,N′-tetrakis(carboxymethyl)ethylenediamine (EDTA). The cells were counted and seeded on a 15 cm collagen-coated dish to a confluence of 70%. The next day, to an Opti-MEM culture medium at 1.2 mL/dish was added Lipofectamine 2000 (Invitrogen) at 60 μL/dish, followed by being left to stand at room temperature for 5 minutes. A plasmid in which a rat EP4 (alignment number 1) had been inserted into a TA cloning site of pcDNA3.1-V5-His-topo was added thereto to 15 μg/dish. After leaving it to stand at room temperature for 30 minutes, the resultant was added to the dish, and cultured for 20 to 24 hours. The cell culture was carried out in a CO2 incubator (37° C., 5% CO2).
Preparation of Membrane Fraction
The culture medium was removed by suction, 10 mL of cooled PBS was added thereto per 15 cm dish, and the cells were scraped using a cell scraper (Sumitomo Bakelite). They were washed with cooled PBS (1,200 rpm, 4° C., 5 min), and then suspended in 6 mL of cooled 20 mM Tris-HCl (pH 7.4; Nakalai Tesque Inc., including 5 mM EDTA (Nakalai Tesque Inc.) per dish. Then, it was homogenized using a Polytron and the homogenate was centrifuged (26,000 rpm, 20 min, 4° C.). The obtained precipitate was resuspended in cooled 20 mM Tris-HCl, and homogenized again using a Polytron, and the homogenate was centrifuged (26,000 rpm, 20 min, 4° C.). The obtained precipitate was resuspended in 50 mM HEPES (pH 7.5; Dojindo Laboratories) to 1 mL per dish, homogenized again using a Polytron, and freeze-stored at −80° C. as a membrane fraction. At this time, a part thereof was used for the measurement of the protein concentration. Measurement of the protein concentration was carried out using a Bio-Rad Protein assay kit (Bio-Rad Laboratories) in accordance with the appended standard Protocol in duplicate.
[^3H] PGE2 50 μL (final concentration 0.3 nM; Perkin Elmer), 100 μL (20 μg/well) of a membrane fraction prepared from the rat EP4 expression cell, and 50 μL of a test compound were mixed in a 96-well microplate (Sumitomo Bakelite), incubated at room temperature for 1 hour, then filtered by suction on a UniFilter-96 GF/B (Perkin Elmer) using a FilterMate Harvester (Perkin Elmer), and washed three times with 300 μL/well of a cooled assay buffer. Dilution of [^3H]PGE2 and the membrane fraction was carried out using an assay buffer (50 mM HEPES, 10 mM MgCl2), and dilution of the test compound and the unlabeled PGE2 was carried out using DMSO and an assay buffer. Further, in the case of the addition of a human serum albumin (HSA), dilution was carried out using an assay buffer containing 4% HSA (final concentration 1%; Sigma). The UniFilter-96 GF/B was treated by preliminarily washing twice with 200 μL/well of a cooled assay buffer. The UniFilter-96 GF/B after filtration was dried in a dryer overnight, 50 μL/well of MicroScint20 (Perkin Elmer) was added thereto, and then the radioactivity was measured using a TopCount (Perkin Elmer). For measurement of the non-specific binding, an unlabeled PGE2 (final concentration 1 μM; Cayman) was added. All of the measurements were carried out in duplicate, and the specific binding amount was determined by subtracting the non-specific binding amount from the total binding amount.
According to Test Example 1 as above, the rat EP4 receptor affinity (Ki) of the compound of the formula (I) was measured.

[2] = system: urinary albumin excretion (UAE) in STZ diabetic rats; test: Effect on urine albumin in streptozotocin-induced (STZ) diabetic rats; assay type: in vivo, rat; details: male Wistar rats, STZ 50 mg/kg i.v.; 30 mg/kg oral, fourth week of administration; vehicle group 3.1±0.7 mg/day
Experimental: Test Example 2: Test to Study the Effect on Urine Albumin in Streptozotocin-induced (STZ) Diabetic Rats.
Eight-week old male Wistar (Crj) rats were divided into groups with unbiased urinary albumin excretion (UAE), and STZ (50 mg/kg) was intravenously administered thereto. From the next day of administration of STZ, the drug was continuously orally administered, and urine was periodically collected in a metabolism cage for 24 hours to measure the UAE.

[3] = Solubility test; assay type: physicochemical; details: pH 1.2, simulated gastric fluid, kinetic from dmso stock; first liquid for disintegration test of Japanese Pharmacopoeia, 25° C., shaking 20 hours
Experimental: Test Example 3: Solubility Test
To 13 μL of a 10 mM DMSO solution of a test material that had been prepared in advance was added exactly 1 mL of a first liquid for a disintegration test of Japanese Pharmacopoeia, followed by shaking at 25° C. for 20 hours, thereby giving a sample stock solution. Next, using a filter impregnated with 200 μL of the sample stock solution, 200 μL of a fresh sample stock solution was added for filtration to obtain a liquid, which was taken as a sample solution. Apart from this, to 10 μL of the 10 mM DMSO solution of the test material was added accurately 1 mL of methanol, followed by stirring, thereby giving a standard solution. 10 μL of the sample solution and the standard solution were tested by liquid chromatography, respectively, and the ratio of the peak area of the sample solution to the peak area of the standard solution was determined, thereby calculating the solubility. For example, the solubilities of the compounds of Examples 23, 25, 31, 32, 50, 55, 57, 60, 93, and 284 were 51 μg/mL, 26 μg/mL, ≧53 μg/mL, 46 μg/mL, 47 μg/mL, ≧52 μg/mL, ≧50 μg/mL, 40 μg/mL, ≧53 μg/mL, and <1 μg/mL, respectively.

Structure (SMILES)	pKi [1]	solubility at 20 h [3]	urinary albumin excretion (UAE) [2]
Cn1c(C(=O)N[C@@H](CCCNC(=O)OCc2ccccc2)C(=O)N[C@H]2CCCC[C@H]2C(=O)O)cc2ccccc21 [Example 22]	9.28	–	–
O=C(NCCC[C@H](NC(=O)c1ccc2ccccc2n1)C(=O)N[C@H]1CCC[C@H]1C(=O)O)OCc1ccccc1 [Example 23]	9.37	51 µg/mL (≈ 95.8 µM)	0.9 ± 0.1 mg/day
COc1cccc(C(=O)N[C@@H](CCCNC(=O)OCc2ccccc2)C(=O)N[C@H]2CCC[C@H]2C(=O)O)c1 [Example 26]	8.80	–	–
CN(C)c1cccc(C(=O)N[C@@H](CCCNC(=O)OCc2ccccc2)C(=O)N[C@H]2CCC[C@H]2C(=O)O)c1 [Example 31]	8.96	≥ 53 µg/mL	–
O=C(NCCC[C@H](NC(=O)c1cccc(Cl)c1)C(=O)N[C@H]1CCC[C@H]1C(=O)O)OCc1ccccc1 [Example 32]	8.89	46 µg/mL (≈ 89.1 µM)	–
Cc1cc(C)n(C)c1C(=O)N[C@@H](CCCNC(=O)OCc1ccccc1)C(=O)N[C@H]1CCC[C@H]1C(=O)O [Example 36]	8.01	–	–
Cc1cc(C(=O)N[C@@H](CCCNC(=O)OCc2ccccc2)C(=O)N[C@H]2CCC[C@H]2C(=O)O)n(C)c1 [Example 57]	9.14	≥ 50 µg/mL	–
O=C(NCCC[C@H](NC(=O)c1cccc(Cl)n1)C(=O)N[C@H]1CCC[C@H]1C(=O)O)OCc1ccccc1 [Example 76]	8.74	–	–
Cn1c(C(=O)N[C@@H](CCCNC(=O)OCc2ccccc2)C(=O)N[C@H]2CCC[C@H]2c2nnn[nH]2)cc2ccccc21 [Example 83]	9.28	–	–
Cn1c(C(=O)N[C@@H](CCCNC(=O)OCc2ccccc2)C(=O)N[C@H]2CCC[C@H]2c2n[nH]c(=S)o2)cc2ccccc21 [Example 119]	8.68	–	–
Cn1c([C@@H]2CCC[C@@H]2NC(=O)[C@H](CCCNC(=O)OCc2ccccc2)NC(=O)c2cc3ccccc3n2C)n[nH]c1=S [Example 120]	8.01	–	–
CC(C)COC(=O)NCCC[C@H](NC(=O)c1cc2ccccc2n1C)C(=O)N[C@H]1CCC[C@H]1C(=O)O [Example 159]	8.22	–	–
COc1ccc2[nH]c(C(=O)N[C@@H](CCCNC(=O)OCc3ccccc3)C(=O)N[C@H]3CCC[C@H]3c3nnn[nH]3)cc2c1 [Example 164]	9.54	–	–
COc1ccc2[nH]c(C(=O)N[C@@H](CCCNC(=O)OCc3ccccc3)C(=O)N[C@H]3CCC[C@H]3C(=O)O)cc2c1 [Example 165]	9.59	–	–
COc1ccc2c(c1)cc(C(=O)N[C@@H](CCCNC(=O)OCc1ccccc1)C(=O)N[C@H]1CCC[C@H]1c1nnn[nH]1)n2C [Example 169]	9.54	–	–
Cn1c(C(=O)N[C@@H](CCCNC(=O)OCc2ccccc2)C(=O)N[C@H]2CCC[C@H]2C(=O)NS(=O)(=O)CCCO)cc2ccccc21 [Example 176]	8.40	–	–

Second part, led by results:

pKi [1]	solubility at 20 h [3]	Structure (SMILES)	urinary albumin excretion (UAE) [2]
9.04	–	Cn1c(C(=O)N[C@@H](CCCNC(=O)OCc2ccccc2)C(=O)N[C@H]2CCC[C@H]2C(=O)O)cc2ccccc21 [Example 2, (1R,2S)-2-({N^5-[(benzyloxy)carbonyl]-N^2-[(1-methyl-1H-indol-2-yl)carbonyl]-L-ornithyl}amino)cyclopentanecarboxylic acid]	–
9.18	26 µg/mL (≈ 48.6 µM)	Cn1ccc2ccc(C(=O)N[C@@H](CCCNC(=O)OCc3ccccc3)C(=O)N[C@H]3CCC[C@H]3C(=O)O)cc21 [Example 25]	–
9.11	47 µg/mL (≈ 87.9 µM)	Cn1ccc2c(C(=O)N[C@@H](CCCNC(=O)OCc3ccccc3)C(=O)N[C@H]3CCC[C@H]3C(=O)O)cccc21 [Example 50]	–
9.04	≥ 52 µg/mL	O=C(/C=C/c1ccccc1O)N[C@@H](CCCNC(=O)OCc1ccccc1)C(=O)N[C@H]1CCC[C@H]1C(=O)O [Example 55]	–
8.96	40 µg/mL (≈ 69.4 µM)	CC(=O)c1cn(C)c2cc(C(=O)N[C@@H](CCCNC(=O)OCc3ccccc3)C(=O)N[C@H]3CCC[C@H]3C(=O)O)ccc12 [Example 60]	–
9.10	≥ 53 µg/mL	Cn1ccc2cccc(C(=O)N[C@@H](CCCNC(=O)OCc3ccccc3)C(=O)N[C@H]3CCC[C@H]3C(=O)O)c21 [Example 93]	–
9.37	–	Cn1c(C(=O)N[C@@H](CCCNC(=O)OCC2CCCCC2)C(=O)N[C@H]2CCC[C@H]2C(=O)O)cc2ccccc21 [Example 160]	–
